Measurements reported in patent US5827837A, “Polyanion anti-inflammatory agents” (priority 1996, dated 1998).

What was measured:
[1] = target: T1, P-selectin-lg fusion protein (Homo sapiens, UniProt P16109); assay: Competition ELISA: binding of P-selectin-Ig to immobilized BSA-sLe^x; conditions: for IC50: read-out: IC50, P-selectin binding
T1 construct: Each selectin-lg contains the lectin domain, epidermal growth factor domain, and one (L-selectin-lg), two (P-selectin-lg) or six (E-selectin-lg) complement regulatory repeats; made in house
T1 sequence (P16109 with tags, fused parts or gaps limits assumed): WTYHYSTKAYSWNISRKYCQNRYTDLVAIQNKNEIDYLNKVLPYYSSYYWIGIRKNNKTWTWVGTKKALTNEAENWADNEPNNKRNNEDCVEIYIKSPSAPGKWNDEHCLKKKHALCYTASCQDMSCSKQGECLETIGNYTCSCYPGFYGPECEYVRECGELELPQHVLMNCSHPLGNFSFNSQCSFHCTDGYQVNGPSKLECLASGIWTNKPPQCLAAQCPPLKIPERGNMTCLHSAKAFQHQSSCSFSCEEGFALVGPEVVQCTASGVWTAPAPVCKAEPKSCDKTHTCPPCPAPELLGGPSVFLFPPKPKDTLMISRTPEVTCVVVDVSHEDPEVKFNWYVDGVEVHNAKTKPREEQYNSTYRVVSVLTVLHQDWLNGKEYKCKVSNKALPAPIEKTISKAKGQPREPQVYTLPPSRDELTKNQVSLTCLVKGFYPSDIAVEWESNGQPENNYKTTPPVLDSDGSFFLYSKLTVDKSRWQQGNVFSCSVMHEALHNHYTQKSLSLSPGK
From the text: Selectin-lg fusion proteins are recombinant chimeric molecules containing extracellular regions of selectins coupled to the hinge, CH2, and CH3 regions of human IgG1 (Aruffo, A., et al., Cell, 67:35, 1991; Walz, G., et al., Science, 250:1132, 1990). Each selectin-lg contains the lectin domain, epidermal growth factor domain, and one (L-selectin-lg), two (P-selectin-lg) or six (E-selectin-lg) complement regulatory repeats of the parent molecules. DNAs encoding selectin-Ig inserted in pCDM7 allowed transient expression of recombinant proteins in COS cells as previously described (Seed, B., et al., Proc. Natl. Acad. Sci., U.S.A., 84:3365, 1987; Aruffo, A., Current Protocols In Molecular Biology, eds. Ausubel, F. M., et al, 16:13.1, Greene Publishing Associates and Wiley-lnterscience, New York, N.Y., 1992). These DNAs were also ligated into pNUT (Palmiter, R. D., et al, Cell, 50:435, 1987) for amplification and stable expression in BHK cells. The fusion proteins were affinity purified from culture media using protein A (Pierce Chemical Company, Rockford, Ill.) or protein G (Pharmacia, Piscataway, N.J.) Sepharose, as previously described (Aruffo, A., et al., Cell, 67:35, 1991; Aruffo, A., Current Protocols In Molecular Biology, eds. Ausubel, F. M., et al, supra, 1992). Competition binding ELISAs using P- and E-selectin-lg were performed essentially as described (Nelson, R. M., et al., J. Clin. Invest., 91:1157, 1993), except that the assay buffer was 20 mM HEPES pH 7.4, 150 mM NaCl, 2 mM CaCl2, and 0.25 mM thimerosal, containing 10 mg/ml BSA, protease-free, (Miles Inc., Kankakee, Ill.). Selectin concentrations were from 10 to 30 nM. […] To increase L-selectin binding, an assay similar to that previously described was used (Foxall, C., et al., J. Cell Biol., 117:895, 1992), in which the L-selectin-lg (10-20 nM) was allowed to form aggregates with HRP-conjugated anti-lg antibody for 30 minutes prior to addition of inositols and incubation on the BSA-sLe^x -coated plate. IC50 values were calculated by fitting binding data to the equation: fraction of maximal binding=IC50 […] using nonlinear least squares analysis software (Origin, Microcal Inc, Northampton, Mass.). InsP6 (dodecasodium salt), InsS6 (hexapotassium salt), myo-inositol 1 monophosphate (cyclohexylammonium salt), and myo-inositol were from Sigma Chemical Company (St. Louis, Mo.). Stock solutions were prepared daily in 0.9% NaCl and sterilized by 0.22 μm filtration. InsP6 solutions were adjusted at pH 7.4 with HCl.
L-, P-, or E-selectin-lg fusion proteins were incubated for 2-3 hours on microtiter plates coated with the neoglycoprotein BSA-sLe^x, the plates washed, and bound selectin-lg was detected using a peroxidase-conjugated antibody directed against the lg portion and a chromogenic substrate. To determine blocking activity, solution-phase lnsP6 (.circle-solid.), InsS6 (.largecircle.), or inositol (.box-solid.) at the indicated concentrations were added to the solutions containing selectin-Ig fusion proteins prior to transfer to microtiter plates (competition ELISA).

[2] = target: T2, P-selectin (P-COS) (Homo sapiens, UniProt P16109); assay: PMN adhesion to P-selectin transfected COS cells (P-COS); format: cell-based; conditions: for PMN adhesion to P-selectin transfected COS: inositol up to 10 mM, InsP6 0.5 mM
T2 construct: adhesion of human PMN or HL60
T2 sequence (P16109 42-830): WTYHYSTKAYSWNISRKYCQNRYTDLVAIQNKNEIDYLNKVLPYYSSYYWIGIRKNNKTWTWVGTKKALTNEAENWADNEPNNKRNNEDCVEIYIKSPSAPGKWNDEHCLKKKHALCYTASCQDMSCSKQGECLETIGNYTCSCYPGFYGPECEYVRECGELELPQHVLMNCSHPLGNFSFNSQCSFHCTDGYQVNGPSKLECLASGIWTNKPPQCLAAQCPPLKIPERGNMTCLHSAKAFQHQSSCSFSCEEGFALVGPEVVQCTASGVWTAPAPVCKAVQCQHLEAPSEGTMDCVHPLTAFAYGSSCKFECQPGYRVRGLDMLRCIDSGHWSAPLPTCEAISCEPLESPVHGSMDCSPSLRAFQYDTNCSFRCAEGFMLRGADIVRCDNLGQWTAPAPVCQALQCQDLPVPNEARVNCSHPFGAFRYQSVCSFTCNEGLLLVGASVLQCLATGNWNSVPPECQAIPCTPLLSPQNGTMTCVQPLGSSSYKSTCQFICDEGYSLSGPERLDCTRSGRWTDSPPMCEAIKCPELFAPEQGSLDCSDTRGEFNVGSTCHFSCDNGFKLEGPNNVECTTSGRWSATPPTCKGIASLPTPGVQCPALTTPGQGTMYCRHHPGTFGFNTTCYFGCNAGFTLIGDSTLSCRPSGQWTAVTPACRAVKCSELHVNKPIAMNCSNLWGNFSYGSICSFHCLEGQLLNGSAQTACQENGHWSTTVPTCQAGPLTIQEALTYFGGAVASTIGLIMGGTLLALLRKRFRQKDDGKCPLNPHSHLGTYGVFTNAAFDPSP
Description: COS-1 cells were transfected as described (Seed, B., et al., Proc. Natl. Acad. Sci., U.S.A., 84:3365, 1987; Aruffo, A., Current Protocols In Molecular Biology, eds. supra, 1992) with pCDM7/pCDM8 expression vectors containing the full-length E-, P- and L-selectin cDNA. Transfected COS-1 cells were seeded on gelatin coated coverslips.

Row | blocking of P-selectin-Ig binding ([1]; BSA-sLe^x competition ELISA) | inhibition at 5000 µM ([2]; COS, 5 mM, read-out: blocking of PMN adhesion to P-selectin transfected COS) [%] | Compound | PMN adhesion to P-selectin transfected COS [2] | IC50 ([1]; BSA-sLe^x competition ELISA) [mM] | blocking of P-selectin-Ig at reduced Ca^2+ ([1]; Ca^2+ reduced to 0.15 mM)
1 | not myo-isositol, blocked binding | – | O[C@H]1[C@H](O)[C@@H](O)[C@H](O)[C@@H](O)[C@H]1O [myo-inositol, reference compound] | no effect at concentrations up to 10 mM | – | –
2 | – | – | O=P(O)(O)O[C@H]1[C@H](OP(=O)(O)O)[C@@H](OP(=O)(O)O)[C@H](OP(=O)(O)O)[C@@H](OP(=O)(O)O)[C@H]1OP(=O)(O)O [InsP6, myo-inositol hexakisphosphate] | blocked PMN adhesion to P-COS | 0.16 ± 0.04 | not enhanced
3 | – | 63 | O=S(=O)(O)O[C@H]1[C@H](OS(=O)(=O)O)[C@@H](OS(=O)(=O)O)[C@H](OS(=O)(=O)O)[C@@H](OS(=O)(=O)O)[C@H]1OS(=O)(=O)O [InsS6, myo-inositol hexakissulfate] | – | 3.2 ± 0.5 | –
